Data on 21 molecules can be found in US10144732B2 (BIOGEN MA INC., priority 2014, dated 2018).

The structures appear in SMILES notation. Where a name gives a salt, the structure may show the parent alone.

The target of one assay is T1, Human ATX protein (Homo sapiens, UniProt Q13822).
T1 construct: made in house
Nature of the assay: ATX biochemical assay (FRET, FS-3 substrate). The note with it: FRET assay, FS-3 2 μM, ATX 1.0 μg/mL, 30 minutes preincubation, 2 hours reaction at room temperature; read-out: IC50. Summed up:
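In-house human ATX (1.0 μg/mL final) was preincubated with compound for 30 min at room temperature in Tris buffer pH 7.4 with 1 mg/mL fatty acid free-BSA. FS-3 substrate (2 μM final) was then hydrolysed for 2 hours at room temperature, protected from light, and read as fluorescence at ex 485/em 538 nm.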
As to `O=C(O)C1CCC(CC(=O)N2CCc3c(C(F)(F)F)nn(CC4CCCCC4)c3C2)CC1` (single isomer, unassigned) [Example 7-13, 4-(2-(1-(cyclohexylmethyl)-3-(trifluoromethyl)-4,5-dihydro-1H-pyrazolo[3,4-c]pyridin-6(7H)-yl)-2-oxoethyl)cyclohexanecarboxylic acid], the IC50 was at most 100 nM.
On to `O=C(CC1CC(N2CC(F)(F)C2)C1)N1CCc2c(C(F)(F)F)nn(Cc3ccc(F)cc3)c2C1` (stereo not drawn) [Example 22-2, TFA salt], for which the 50% inhibitory concentration (IC50) was at most 100 nM.
For the molecule `NC12CCC(C(=O)N3CCc4c(C(F)(F)F)nn(Cc5ccc(F)cc5)c4C3)(CC1)CC2` [Example 9-9, (4-Aminobicyclo[2.2.2]octan-1-yl)(1-(4-fluorobenzyl)-3-(trifluoromethyl)-4,5-dihydro-1H-pyrazolo[3,4-c]pyridin-6(7H)-yl)methanone TFA salt], the IC50 was in the range of 100 to 250 nM.
Turning to `O=C(O)[C@H]1C2C3C[C@@H]1C(CC(=O)N1CCc4c(C(F)(F)F)nn(Cc5ccc(F)cc5)c4C1)C32` (stereo partly drawn) [Example 6-17, (3R,4R)-5-(2-(1-(4-Fluorobenzyl)-3-(trifluoromethyl)-4,5-dihydro-1H-pyrazolo[3,4-c]pyridin-6(7H)-yl)-2-oxoethyl)tricyclo[2.2.1.02,6]heptane-3-carboxylic acid], the concentration for half-maximal inhibition (IC50) is at most 100 nM.
In the case of `CC(C)(C)OC(=O)N1CC(CC(=O)N2CCc3c(C(F)(F)F)nn(Cc4ccc(Cl)cc4F)c3C2)C[C@@H]1C(=O)O` (stereo partly drawn) [Example 5-56, (2R)-1-(tert-Butoxycarbonyl)-4-(2-(1-(4-chloro-2-fluorobenzyl)-3-(trifluoromethyl)-4,5-dihydro-1H-pyrazolo[3,4-c]pyridin-6(7H)-yl)-2-oxoethyl)pyrrolidine-2-carboxylic acid], the IC50 was at most 100 nM.
With `O=C(Cc1ccc(F)cc1)N1CCc2c(C(F)(F)F)nn(Cc3ccc(Cl)cc3F)c2C1` [Example 1-12, 1-(1-(4-Chloro-2-fluorobenzyl)-3-(trifluoromethyl)-4,5-dihydro-1H-pyrazolo[3,4-c]pyridin-6(7H)-yl)-2-(4-fluorophenyl)ethanone], the IC50 is at most 100 nM.
In the case of `O=C(C1CN2CCC1CC2)N1CCc2c(C(F)(F)F)nn(Cc3ccc(F)cc3)c2C1` (stereo not drawn) [Example 1-35, (1-(4-Fluorobenzyl)-3-(trifluoromethyl)-4,5-dihydro-1H-pyrazolo[3,4-c]pyridin-6(7H)-yl)(quinuclidin-3-yl)methanone TFA salt], the IC50 was 100 to 250 nM.
Turning to `O=C(O)C12CCC(C(=O)N3CCc4c(C(F)(F)F)nn(Cc5ccc(Cl)cc5F)c4C3)(CC1)C2` [Example 5-51], the 50% inhibitory concentration (IC50) is at most 100 nM.
On the same count and under the same terms, with `O=C(CC1CCC(N2CCOCC2)CC1)N1CCc2c(C(F)(F)F)nn(Cc3ccc(F)cc3)c2C1` (stereo not drawn) [Example 22-10, 1-(1-(4-Fluorobenzyl)-3-(trifluoromethyl)-4,5-dihydro-1H-pyrazolo[3,4-c]pyridin-6(7H)-yl)-2-(4-morpholinocyclohexyl)ethanone TFA salt] the figure was at most 100 nM; with `COc1ccc(Cn2nc(C(F)(F)F)c3c2CN(C(=O)C[C@H]2CC[C@H](C(=O)O)CC2)CC3)cc1` [Example 5-15, trans-4-(2-(1-(4-Methoxylbenzyl)-3-(trifluoromethyl)-4,5-dihydro-1H-pyrazolo[3,4-c]pyridin-6(7H)-yl)-2-oxoethyl)cyclohexanecarboxylic acid], at most 100 nM; with `O=C(CN1CCC(C(F)(F)F)CC1)N1CCc2c(C(F)(F)F)nn(Cc3ccc(Cl)cc3F)c2C1` [Example 12-8, 1-(1-(4-Chloro-2-fluorobenzyl)-3-(trifluoromethyl)-4,5-dihydro-1H-pyrazolo[3,4-c]pyridin-6(7H)-yl)-2-(4-(trifluoromethyl)piperidin-1-yl)ethanone], at most 100 nM.
As for `N#Cc1ccc(Cn2nc(C(F)(F)F)c3c2CN(C(=O)C[C@H]2CC[C@@H](C(=O)O)CC2)CC3)cc1` (stereo in doubt) [Example 5-35, cis-4-(2-(1-(4-Cyanobenzyl)-3-(trifluoromethyl)-4,5-dihydro-1H-pyrazolo[3,4-c]pyridin-6(7H)-yl)-2-oxoethyl)cyclohexanecarboxylic acid], the IC50 is at most 100 nM.
Still for that read-out and setting: the same measure for `O=C(CN[C@H]1C[C@H](C(=O)O)C1)N1CCc2c(C(F)(F)F)nn(Cc3ccc(F)cc3)c2C1` [Example 13-29, trans-3-(2-(1-(4-Fluorobenzyl)-3-(trifluoromethyl)-4,5-dihydro-1H-pyrazolo[3,4-c]pyridin-6(7H)-yl)-2-oxoethylamino)cyclobutanecarboxylic acid TFA salt]: at most 100 nM.
Same read-out and setting: the same measure for `CCOC(=O)C1CCCN(CC(=O)N2CCc3c(C(F)(F)F)nn(Cc4ccc(F)cc4)c3C2)CC1` (stereo not drawn) [Example 12-16, Ethyl 1-(2-(1-(4-fluorobenzyl)-3-(trifluoromethyl)-4,5-dihydro-1H-pyrazolo[3,4-c]pyridin-6(7H)-yl)-2-oxoethyl)azepane-4-carboxylate TFA salt]: at most 100 nM; for `CC(C)(C)OC(=O)N1CCC(CC(=O)N2CCc3c(C(F)(F)F)nn(Cc4ccc(Cl)cc4F)c3C2)CC1` [Example 8-2, tert-Butyl 4-(2-(1-(4-chloro-2-fluorobenzyl)-3-(trifluoromethyl)-4,5-dihydro-1H-pyrazolo[3,4-c]pyridin-6(7H)-yl)-2-oxoethyl)piperidine-1-carboxylate]: at most 100 nM; for `NC(=O)c1nn(Cc2ccc(F)cc2)c2c1CCN(C(=O)C[C@H]1CC[C@H](C(=O)O)CC1)C2` [Example 5-47, trans-4-(2-(3-Carbamoyl-1-(4-fluorobenzyl)-4,5-dihydro-1H-pyrazolo[3,4-c]pyridin-6(7H)-yl)-2-oxoethyl)cyclohexanecarboxylic acid]: 250 to 500 nM.
On the same count and under the same terms, the same measure for `CCC1CC(CC(=O)N2CCc3c(C(F)(F)F)nn(Cc4ccc(F)cc4)c3C2)CCN1C(=O)OC(C)(C)C` (stereo not drawn) [Example 8-8, tert-Butyl 2-ethyl-4-(2-(1-(4-fluorobenzyl)-3-(trifluoromethyl)-4,5-dihydro-1H-pyrazolo[3,4-c]pyridin-6(7H)-yl)-2-oxoethyl)piperidine-1-carboxylate]: at most 100 nM; for `O=C(C1CCn2cncc2C1)N1CCc2c(C(F)(F)F)nn(Cc3ccc(F)cc3)c2C1` (stereo not drawn) [Example 1-20, (1-(4-Fluorobenzyl)-3-(trifluoromethyl)-4,5-dihydro-1H-pyrazolo[3,4-c]pyridin-6(7H)-yl)(5,6,7,8-tetrahydroimidazo[1,5-a]pyridin-7-yl)methanone]: over 10000 nM.
With `N[C@H]1CC[C@H](CC(=O)N2CCc3c(C(F)(F)F)nn(Cc4ccc(F)cc4)c3C2)CC1` [Example 9-20, 2-(trans-4-Aminocyclohexyl)-1-(1-(4-fluorobenzyl)-3-(trifluoromethyl)-4,5-dihydro-1H-pyrazolo[3,4-c]pyridin-6(7H)-yl)ethanone TFA salt], the half-maximal inhibitory concentration (IC50) was at most 100 nM.
Take `CN1CCC(CC(=O)N2CCc3c(C(F)(F)F)nn(Cc4ccc(Cl)cc4F)c3C2)CC1` [Example 1-2, 1-(1-(4-Chloro-2-fluorobenzyl)-3-(trifluoromethyl)-4,5-dihydro-1H-pyrazolo[3,4-c]pyridin-6(7H)-yl)-2-(1-methylpiperidin-4-yl)ethanone]: the concentration for half-maximal inhibition (IC50) was at most 100 nM.

The assay is the same for the next values; noted with them: IC50, FRET assay, FS-3 2 μM, ATX 1.0 μg/mL, 30 minutes preincubation, 2 hours reaction at room temperature.
`O=C(O)C1CC2CCCC(C1)N2CC(=O)N1CCc2c(C(F)(F)F)nn(Cc3ccc(F)cc3)c2C1` (stereo not drawn) [Example 13-6, 9-(2-(1-(4-Fluorobenzyl)-3-(trifluoromethyl)-4,5-dihydro-1H-pyrazolo[3,4-c]pyridin-6(7H)-yl)-2-oxoethyl)-9-azabicyclo[3.3.3.1]nonane-3-carboxylic acid] had an IC50 of at most 100 nM.

By IC50 is commonly meant the concentration at which inhibition is half-maximal.
